From article PMC8546421, “Molecular modelling of the FOXO4-TP53 interaction to design senolytic peptides for the elimination of senescent cancer cells” (EBioMedicine, 2021)
Where two headings read alike, the source gives them in different places. Where no end group is shown, it is not given here.

What was measured:
dividing A375 cells = assay: Peptide efficacy in culture (MTS), dividing cells; type: cell-based, human; details: peptide replenished daily for two days, MTS, best fit polynomial, read-out: IC50^div, concentration to kill 50% of dividing cells
Protocol: Cell lines were treated with chemotherapy, doxorubicin (Sigma, Cat. No. 2252) to induce senescence (200 nM for HCT116, 100 nM for B16-F10 and MCF7, 50 nM for SW480 and DLD-1, 40 nM for A375-Luc/iRFP and MCF10a). MCF7 cells were treated with CDK4/6 inhibitor, palbociclib (Selleck Chemicals: S1116) to induce senescence (5 µM). A375 cells were treated with Braf inhibitor, Dabrafenib (Selleck Chemicals: S2807), to induce senescence (10 µM). Peptide efficacy experiments were performed by seeding 10,000 – 20,000 cells in a 96-well plate. The cells were given doxorubicin twice to make the cells senescent. After removal of doxorubicin, the plate was treated with varying concentrations of peptide. The peptide was replenished daily for two days. Cellular proliferation was quantified using the Promega CellTiter 96™ AQueous One Solution Cell Proliferation Assay (MTS) after 2 hours according to the manufacturer's protocol (Promega, G3581). To control for the charge of ES2, ProteoJuice (Millipore Sigma, 71281) was used to deliver ES2 using the manufacturers protocol, except 50 µL of 2 mM ES2 was mixed with 25 µL of ProteoJuice. Varying concentrations of the mixture were administered to A375 cells along with a control of only ProteoJuice.

[1] = tested on: senescent TP53 knockout MCF10a cells; assay: ES2 viability in TP53 knockout vs wildtype MCF10a cells; type: cell-based, human; details: range of ES2 treatments
Protocol: A375-Luc/iRFP cells were purchased from Creative Biogene (CSC-RR0254). B16-F10 cells were purchased (ATCC Cat# CRL-6475, RRID:CVCL_0159). MCF7 cells were purchased (ATCC Cat# HTB-22, RRID:CVCL_0031). IMR90 cells were purchased (ATCC Cat# CCL-186, RRID:CVCL_0347). A375-Luc/iRFP, B16-F10, IMR90, and MCF7 cells were cultured in Dulbecco's Modified Eagle Medium (DMEM), 10% fetal bovine serum (FBS) and 1X penicillin-streptomycin (PS). HCT-116 cells were purchased (ATCC Cat# CCL-247, RRID:CVCL_0291). DLD-1 cells were purchased (ATCC Cat# CCL-221, RRID:CVCL_0248). SW480 cells were purchased (ATCC Cat# CCL-228, RRID:CVCL_0546). HCT-116, DLD-1, and SW480 cells were cultured in Roswell Park Memorial Institute 1640 (RPMI 1640), 10% FBS, and 1X PS. […]
Cell lines were treated with chemotherapy, doxorubicin (Sigma, Cat. No. 2252) to induce senescence (200 nM for HCT116, 100 nM for B16-F10 and MCF7, 50 nM for SW480 and DLD-1, 40 nM for A375-Luc/iRFP and MCF10a). […] Cellular proliferation was quantified using the Promega CellTiter 96™ AQueous One Solution Cell Proliferation Assay (MTS) after 2 hours according to the manufacturer's protocol (Promega, G3581). […]

TP53 = biological target: T1, TP53 (Homo sapiens, UniProt P04637); assay: Bio-layer Interferometry, TP53; type: binding; details: BLI
T1 construct: purchased Millipore Sigma Aldrich 23-034
T1 sequence (P04637 whole entry): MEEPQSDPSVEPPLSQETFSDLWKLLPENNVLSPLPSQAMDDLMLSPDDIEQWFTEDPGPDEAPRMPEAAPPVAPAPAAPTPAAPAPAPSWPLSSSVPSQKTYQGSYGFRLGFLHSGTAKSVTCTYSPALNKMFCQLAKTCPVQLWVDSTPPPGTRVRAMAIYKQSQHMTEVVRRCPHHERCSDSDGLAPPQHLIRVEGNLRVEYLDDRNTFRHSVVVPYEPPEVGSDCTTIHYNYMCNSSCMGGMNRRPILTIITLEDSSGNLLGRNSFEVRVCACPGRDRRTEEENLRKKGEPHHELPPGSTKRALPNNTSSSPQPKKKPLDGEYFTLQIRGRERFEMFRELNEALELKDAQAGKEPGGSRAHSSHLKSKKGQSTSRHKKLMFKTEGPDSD
Protocol: Bio-layer Interferometry (BLI) measurements were performed on a ForteBio Octet RED384 instrument (Molecular Devices) using ForteBio Data Acquisition software 9.0 and ForteBio biosensors (Molecular Devices) according to the manufacturer's instructions. Kinetic assays were carried out at 30°C using settings of Standard Kinetics Acquisition rate (5.0 Hz, averaging by 20) at a sample plate shake speed of 1,000 rpm. Streptavidin sensors (SA) (ForteBio) equilibrated in PBS were mock loaded (no ligand reference sensor) or loaded with 50 nM of N- terminal biotinylated ES2 peptide (New England Peptide, Inc.) with an approximate response of 1 nm. Ligand loaded SA sensors equilibrated in Kinetics buffer (ForteBio) to establish a baseline, were dipped into wells containing 2-fold dilutions of TP53 (Millipore Sigma Aldrich; Cat# 23-034), FOXO4 (OriGene Technologies; Cat# TP760655) or GFP analytes in kinetics buffer, or buffer alone (reference sample). Increasing concentrations of analytes ranging from 6.2 - 200 nM were allowed to associate for 240 secs, followed by 600 sec dissociation step where the TP53/FOXO4-bound sensors were washed with kinetics buffer. Binding curves were analysed using ForteBio Data Analysis HT 10.0 evaluation software. To control for background signal and non-specific binding, raw experimental data were processed by subtracting reference biosensor and reference sample (no ligand). Processed data from at least six different concentrations of analyte binding were globally fit to a 1:1 Langmuir binding model to calculate the association rate constant ka, the dissociation rate constant kd to achieve R^2 > 0.90. Equilibrium dissociation constants KD which defines the strength of the interaction or affinity was calculated as the kinetic dissociation rate constant divided by the kinetic association rate constant.

For “PRKGGRRRRAWGRRRRRRRRRRRRRRAPRKRLTLA [ES2]”, the IC50 (dividing A375 cells) was ~17 µM, the “ES2 mediated cell death in p53−/− vs p53+/+ senescent MCF10a” value [1] was “resistant to ES2 mediated cell death” and the kon (TP53; 1:1 Langmuir binding model, read-out: association rate ka) was 38000 M⁻¹ s⁻¹. It also gave a kd (TP53; biotinylated ES2 immobilized on streptavidin sensors, analyte 6.25-200 nM, 30°C, global 1:1 Langmuir fit) of 8.7e-05 ± 6.3e-07 s⁻¹, a kon (TP53; biotinylated ES2 immobilized on streptavidin sensors, analyte 6.25-200 nM, 30°C, global 1:1 Langmuir fit, read-out: ka) of 38000 M⁻¹ s⁻¹ and a Kd (TP53; biotinylated ES2 immobilized on streptavidin sensors, analyte 6.25-200 nM, 30°C, kd/ka) of 0.0023 ± 2e-05 µM.
